# Experimental data taken from patent publication US12655116B2, “Substituted isophthalic acid diamides” (Bayer Aktiengesellschaft, priority 2020, dated 2026).
# What was measured:
# [1] = system: AMARE; assay: Pre-emergence herbicidal action against AMARE; format: in vivo, Amaranthus retroflexus
# Summary of the method: (§1)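 Sandy loam pots, seeds covered with soil, then surface-treated with WP or EC formulations at 600–800 l/ha water plus 0.2% wetting agent. Greenhouse, 3 weeks. Percent damage vs untreated controls.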
# [2] = system: ALOMY; assay: Post-emergence herbicidal action against ALOMY; format: in vivo, Alopecurus myosuroides; details: dosage 20 g/ha, visual assessment about 3 weeks after treatment vs untreated controls
# Summary of the method: (§2)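 Visual % rating (0% = as untreated, 100% = dead) ~3 wk after spraying one-leaf-stage plants grown in sandy loam; WP/EC in water at 600–800 l/ha, 0.2% wetting agent.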
# [3] = system: ALOMY; assay: Pre-emergence herbicidal action against ALOMY; format: in vivo, Alopecurus myosuroides; details: pre-emergence
# Summary of the method: as §1
# [4] = system: ABUTH; assay: Post-emergence herbicidal action against ABUTH; format: in vivo, Abutilon theophrasti; details: visual assessment about 3 weeks after treatment vs untreated controls
# Summary of the method: as §2
# [5] = system: PHBPU; assay: Post-emergence herbicidal action against PHBPU; format: in vivo, Pharbitis purpurea
# Summary of the method: as §2
# [6] = system: MATIN; assay: Pre-emergence herbicidal action against MATIN; format: in vivo, Matricaria inodora
# Summary of the method: as §1
# [7] = system: VIOTR; assay: Post-emergence herbicidal action against VIOTR; format: in vivo, Viola tricolor
# Summary of the method: as §2
# [8] = system: HORMU; assay: Post-emergence herbicidal action against HORMU; format: in vivo, Hordeum murinum; details: dosage 20 g/ha
# Summary of the method: as §2
# [9] = system: HORMU; assay: Pre-emergence herbicidal action against HORMU; format: in vivo, Hordeum murinum; details: 80 g/ha, pre-emergence
# Summary of the method: as §1
# [10] = system: DIGSA; assay: Post-emergence herbicidal action against DIGSA; format: in vivo, Digitaria sanguinalis
# Summary of the method: as §2
# [11] = system: LOLRI; assay: Pre-emergence herbicidal action against LOLRI; format: in vivo, Lolium rigidum; details: 80 g/ha
# Summary of the method: as §1
# [12] = system: AVEFA; assay: Pre-emergence herbicidal action against AVEFA; format: in vivo, Avena fatua; details: pre-emergence
# Summary of the method: as §1
# [13] = system: ABUTH; assay: Pre-emergence herbicidal action against ABUTH; format: in vivo, Abutilon theophrasti
# Summary of the method: as §1
# [14] = system: VERPE; assay: Post-emergence herbicidal action against VERPE; format: in vivo, Veronica persica; details: 20 g/ha
# Summary of the method: as §2
# [15] = system: ECHCG; assay: Post-emergence herbicidal action against ECHCG; format: in vivo, Echinochloa crus-galli; details: dosage 20 g/ha
# Summary of the method: as §2
# [16] = system: DIGSA; assay: Pre-emergence herbicidal action against DIGSA; format: in vivo, Digitaria sanguinalis
# Summary of the method: as §1
# [17] = system: POLCO; assay: Pre-emergence herbicidal action against POLCO; format: in vivo, Polygonum convolvulus
# Summary of the method: as §1
# [18] = system: SETVI; assay: Post-emergence herbicidal action against SETVI; format: in vivo, Setaria viridis; details: dosage 20 g/ha
# Summary of the method: as §2
# [19] = system: VIOTR; assay: Pre-emergence herbicidal action against VIOTR; format: in vivo, Viola tricolor
# Summary of the method: as §1
# [20] = system: AMARE; assay: Post-emergence herbicidal action against AMARE; format: in vivo, Amaranthus retroflexus; details: Amaranthus retroflexus, 504 h, 20 g/ha, visual assessment about 3 weeks after treatment, 100% = plants have died, 0% = like control plants
# Summary of the method: as §2
# [21] = system: SETVI; assay: Pre-emergence herbicidal action against SETVI; format: in vivo, Setaria viridis
# Summary of the method: as §1
# [22] = system: MATIN; assay: Post-emergence herbicidal action against MATIN; format: in vivo, Matricaria inodora
# Summary of the method: as §2
# [23] = system: STEME; assay: Pre-emergence herbicidal action against STEME; format: in vivo, Stellaria media
# Summary of the method: as §1
# [24] = system: ECHCG; assay: Pre-emergence herbicidal action against ECHCG; format: in vivo, Echinochloa crus-galli; details: 80 g/ha
# Summary of the method: as §1
# [25] = system: AVEFA; assay: Post-emergence herbicidal action against AVEFA; format: in vivo, Avena fatua; details: 20 g/ha, visual assessment about 3 weeks after treatment, 100% = plants have died, 0% = like control plants
# Summary of the method: as §2
# [26] = system: STEME; assay: Post-emergence herbicidal action against STEME; format: in vivo, Stellaria media
# Summary of the method: as §2
# [27] = system: PHBPU; assay: Pre-emergence herbicidal action against PHBPU; format: in vivo, Pharbitis purpurea; details: dosage 80 g/ha
# Summary of the method: as §1
# [28] = system: VERPE; assay: Pre-emergence herbicidal action against VERPE; format: in vivo, Veronica persica; details: dosage 80 g/ha
# Summary of the method: as §1
# [29] = Tripleurospermum inodorum, 504 h, dosage 20 g/ha
# [30] = 80 g/ha, scored visually after 3 weeks vs untreated controls (100% = plants have died, 0% = like control plants)
smiles,measurement,setting,value
Cn1nnnc1NC(=O)c1ccc(C(F)(F)F)c(C(=O)NC2CC2)c1Cl [Example 1-131],pest or weed control at 20 g/ha,"[1]; Amaranthus retroflexus, 504 h, 20 g/ha, scored visually after 3 weeks vs untreated controls, 100% = plants have died, 0% = like control plants",100%
same,pest or weed control at 80 g/ha,"[1]; Amaranthus retroflexus, 504 h, 80 g/ha, scored visually after 3 weeks vs untreated controls, 100% = plants have died, 0% = like control plants",100%
same,pest or weed control at 20 g/ha,"[2]; Alopecurus myosuroides, 504 h",90%
same,pest or weed control at 80 g/ha,"[3]; Alopecurus myosuroides, 504 h, 80 g/ha, scored visually after 3 weeks vs untreated controls (100% = plants have died, 0% = like control plants)",100%
same,pest or weed control at 20 g/ha,"[3]; Alopecurus myosuroides, 504 h, 20 g/ha, scored visually after 3 weeks, 100% = plants have died, 0% = like control plants",80%
same,pest or weed control at 5 g/ha,"[4]; Abutilon theophrasti, 504 h, dosage 5 g/ha",90%
same,pest or weed control at 20 g/ha,"[4]; Abutilon theophrasti, 504 h, dosage 20 g/ha",90%
same,pest or weed control at 20 g/ha,"[5]; Ipomoea purpurea, 504 h, dosage 20 g/ha",90%
same,pest or weed control at 20 g/ha,[6]; [29],100%
same,pest or weed control at 80 g/ha,"[6]; Tripleurospermum inodorum, 504 h, dosage 80 g/ha",100%
same,pest or weed control at 5 g/ha,"[7]; Viola tricolor, 504 h, 5 g/ha",100%
same,pest or weed control at 20 g/ha,"[7]; Viola tricolor, 504 h, 20 g/ha",100%
same,pest or weed control at 20 g/ha,"[8]; Hordeum murinum, 504 h",80%
same,pest or weed control at 80 g/ha,"[9]; Hordeum murinum, 504 h",80%
same,pest or weed control at 5 g/ha,"[10]; Digitaria sanguinalis, 504 h, 5 g/ha",100%
same,pest or weed control at 20 g/ha,"[10]; Digitaria sanguinalis, 504 h, 20 g/ha",100%
same,pest or weed control at 80 g/ha,"[11]; Lolium rigidum, 504 h",80%
same,pest or weed control at 80 g/ha,"[12]; Avena fatua, 504 h, 80 g/ha",100%
same,pest or weed control at 20 g/ha,"[12]; Avena fatua, 504 h, 20 g/ha, scored visually after 3 weeks, 100% = plants have died, 0% = like control plants",80%
same,pest or weed control at 80 g/ha,"[13]; Abutilon theophrasti, 504 h, 80 g/ha, scored visually after 3 weeks vs untreated controls (100% = plants have died, 0% = like control plants)",100%
same,pest or weed control at 20 g/ha,"[13]; Abutilon theophrasti, 504 h, dosage 20 g/ha, scored visually after 3 weeks vs untreated controls, 100% = plants have died, 0% = like control plants, read-out: Pre-emergence action against ABUTH (herbicidal activity in percent)",100%
same,pest or weed control at 20 g/ha,"[14]; Veronica persica, 504 h",90%
same,pest or weed control at 20 g/ha,"[15]; Echinochloa crus-galli, 504 h",90%
same,pest or weed control at 20 g/ha,"[16]; Digitaria sanguinalis, 504 h, dosage 20 g/ha",100%
same,pest or weed control at 80 g/ha,"[16]; Digitaria sanguinalis, 504 h, dosage 80 g/ha",100%
same,pest or weed control at 80 g/ha,"[17]; Fallopia convolvulus, 504 h, dosage 80 g/ha",80%
same,pest or weed control at 20 g/ha,"[18]; Setaria viridis, 504 h",100%
same,pest or weed control at 20 g/ha,"[19]; Viola tricolor, 504 h, dosage 20 g/ha",100%
same,pest or weed control at 80 g/ha,"[19]; Viola tricolor, 504 h, dosage 80 g/ha",100%
same,pest or weed control at 20 g/ha,[20],100%
same,pest or weed control at 20 g/ha,"[21]; Setaria viridis, 504 h, dosage 20 g/ha",80%
same,pest or weed control at 80 g/ha,"[21]; Setaria viridis, 504 h, dosage 80 g/ha",100%
same,pest or weed control at 5 g/ha,"[22]; Tripleurospermum inodorum, 504 h, dosage 5 g/ha",90%
same,pest or weed control at 20 g/ha,[22]; [29],90%
same,pest or weed control at 20 g/ha,"[23]; Stellaria media, 504 h, dosage 20 g/ha",100%
same,pest or weed control at 80 g/ha,"[23]; Stellaria media, 504 h, dosage 80 g/ha",100%
same,pest or weed control at 80 g/ha,"[24]; Echinochloa crus-galli, 504 h",100%
same,pest or weed control at 20 g/ha,"[25]; Avena fatua, 504 h",80%
same,pest or weed control at 20 g/ha,"[26]; Stellaria media, 504 h, 20 g/ha",100%
same,pest or weed control at 5 g/ha,"[26]; Stellaria media, 504 h, dosage 5 g/ha",80%
CCn1nnnc1NC(=O)c1ccc(C(F)(F)F)c(C(=O)NC)c1C [Example 2-25],Pre-emergence action against AMARE in %,"[1]; 20 g/ha, scored visually after 3 weeks vs untreated controls, 100% = plants have died, 0% = like control plants",100%
same,Pre-emergence action against AMARE in %,[1]; [30],100%
same,Post-emergence action against ALOMY in %,[2],90%
same,Pre-emergence action against ALOMY (herbicidal activity),[3]; [30],90%
same,Post-emergence action against ABUTH in %,[4]; dosage 5 g/ha,100%
same,Post-emergence action against ABUTH in %,[4]; dosage 20 g/ha,100%
same,Post-emergence action against PHBPU in %,[5]; dosage 5 g/ha,80%
same,Post-emergence action against PHBPU in %,[5]; dosage 20 g/ha,90%
same,Pre-emergence action against MATIN in %,[6]; dosage 20 g/ha,100%
same,Pre-emergence action against MATIN in %,[6]; dosage 80 g/ha,100%
same,Post-emergence action against VIOTR in %,[7]; 5 g/ha,80%
same,Post-emergence action against VIOTR in %,[7]; 20 g/ha,90%
same,Post-emergence action against HORMU in %,[8],80%
same,Pre-emergence action against HORMU in %,[9],90%
same,Post-emergence action against DIGSA in %,[10]; 5 g/ha,80%
same,Post-emergence action against DIGSA,[10]; 20 g/ha,90%
same,Pre-emergence action against LOLRI in %,[11],80%
same,Pre-emergence action against AVEFA in %,[12]; 80 g/ha,100%
same,Pre-emergence action against ABUTH (herbicidal activity),[13]; [30],100%
same,Pre-emergence action against ABUTH (herbicidal activity in percent),"[13]; dosage 20 g/ha, scored visually after 3 weeks vs untreated controls, 100% = plants have died, 0% = like control plants",100%
same,Pre-emergence action against PHBPU in %,[27],80%
same,Post-emergence action against VERPE in %,[14],90%
same,Post-emergence action against ECHCG in %,[15],80%
same,Pre-emergence action against DIGSA in %,[16]; dosage 20 g/ha,100%
same,Pre-emergence action against DIGSA in %,[16]; dosage 80 g/ha,100%
same,Pre-emergence action against VERPE in %,[28],100%
same,Pre-emergence action against POLCO in %,[17]; dosage 20 g/ha,100%
same,Pre-emergence action against POLCO in %,[17]; dosage 80 g/ha,100%
same,Post-emergence action against SETVI in %,[18],80%
same,Pre-emergence action against VIOTR in %,[19]; dosage 80 g/ha,100%
same,Pre-emergence action against SETVI in %,[21]; dosage 20 g/ha,100%
same,Pre-emergence action against SETVI in %,[21]; dosage 80 g/ha,100%
same,Post-emergence action against MATIN in %,[22]; dosage 5 g/ha,90%
same,Post-emergence action against MATIN in %,[22]; dosage 20 g/ha,100%
same,Pre-emergence action against STEME in %,[23]; dosage 20 g/ha,90%
same,Pre-emergence action against STEME in %,[23]; dosage 80 g/ha,100%
same,Pre-emergence action against ECHCG in %,[24],100%
same,Post-emergence action at 20 g/ha against AVEFA in %,[25],100%
same,Post-emergence action against STEME in %,[26]; 20 g/ha,100%
same,Post-emergence action against STEME in %,[26]; dosage 5 g/ha,90%
